Data on 1 compound can be found in US9518038B2, “Condensation product of theanine derivative and carboxylic acid coumarin derivative, its intermediate, preparation method and use thereof” (SHANDONG YINGDONG YINGHAO BIOTECHNOLOGY, INC., priority 2012, dated 2016).

Structures are written as SMILES. Marks after values point to notes of the source that are not given here.

The subject of this experiment is HDAC3. As to the kind of experiment: HDAC3 enzyme activity in nuclear extracts of LLC tumors of treated mice. As to conditions: LLC tumor grown in vivo; first value of the pair HDAC3 and HDAC4; SAHA 25 mg/kg.

As to `CCNC(=O)CCC(NC(=O)c1cc2ccccc2oc1=O)C(=O)OC` (stereo not shown) [Compound Ia, methyl 5-ethylamino-5-oxo-2-(2-oxo-2H-benzopyran-3-carboxamido)pentanoate], the “decrease of HDAC3 enzyme activity/inhibition rate” value is listed as 55%* and.
